Measurements published in US8809001B2, “High throughput assays for inhibitors and activators of PAQR receptors” (University of Florida Research Foundation, Inc., priority 2007, dated 2014).
“And” between values parts separate entries of the source, which are not always exact repeats. Identical values can stand only once.

Experiments:
FET3 = test: FET3-lacZ reporter in wild type yeast carrying empty expression plasmid; format: cell-based, Saccharomyces cerevisiae; conditions: no human PAQR
Description: (§1) Assays and growth conditions. Strains were maintained using standard protocol and grown in synthetic defined (SD) media with the appropriate amino acids to match the auxotrophies of the individual strains. Low Iron Medium (LIM) contains EDTA to limit iron-bioavailability and its composition has been previously described (Kupchak et al., 2007). […] In brief, overnights of cells grown in SD-glucose media were re-inoculated into iron-deficient LIM to induce the expression of FET3. 2% galactose was used as a carbon source to induce full expression of PAQR genes driven by the GAL1 promoter, while 0.05% galactose/1.95% raffinose was used for reduced PAQR expression. All ligands were added to the growth medium upon re-inoculation into LIM. For experiments in which steroids were added as ligands, steroids were added from ethanol stocks and “untreated” controls are actually treated with an equal volume of ethanol to control for vehicle effects. Cells were allowed to grow to mid-log phase at which time the activity of the FET3 gene was monitored using a FET3-lacZ promoter-reporter construct. lacZ activities are presented as a percentage of activity seen in untreated cells expressing the appropriate empty expression vector control. For individual experiments, each data point has been done in triplicate and the error bars represent +/−1 standard deviation. All experiments were performed at least three times and a representative experiment is shown. EC50 values were obtained using the web-based BioDataFit software using sigmoidal curve-fitting. (web site changbioscience.com/stat/ec50.html)

mPRγ = molecular target: T1, mPRγ (Homo sapiens, UniProt Q9NXK6); test: FET3-lacZ reporter repression in yeast expressing mPRγ; format: cell-based
T1 construct: Full length and truncated mPRγ and mPRα were expressed in wild type cells grown in 2% galactose from the pGREG536 vector; expressed in transfected cells; host or cells: Saccharomyces cerevisiae (BY4742 wild type; also gpa mutants), GAL1-driven plasmids
T1 sequence (Q9NXK6 1-330): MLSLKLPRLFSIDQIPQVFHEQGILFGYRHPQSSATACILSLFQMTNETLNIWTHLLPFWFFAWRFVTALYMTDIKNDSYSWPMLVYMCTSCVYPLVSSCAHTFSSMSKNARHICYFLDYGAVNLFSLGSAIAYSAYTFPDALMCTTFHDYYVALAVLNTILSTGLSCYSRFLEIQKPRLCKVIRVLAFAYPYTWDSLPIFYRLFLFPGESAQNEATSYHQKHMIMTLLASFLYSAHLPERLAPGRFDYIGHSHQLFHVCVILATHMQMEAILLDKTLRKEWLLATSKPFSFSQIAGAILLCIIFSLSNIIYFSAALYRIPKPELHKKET
Description: (§2) Plasmids and primers. Human PAQRs were cloned into various vectors by PCR from commercially/publically available cDNAs. PAQRs were cloned into the pYES260 (Melcher, 2000), pRS316 (Liu et al., 1992) or pGREG536 (Jansen et al., 2005) expression vectors using gap repair. The pJK90 plasmid containing a Dual Topology Reporter (DTR)-tagged OST4 gene driven by the constitutive TPI1 promoter was kindly provided by Dr. Gunnar von Heijne (Stockholm University) (Kim et al., 2003). The OST4 open reading frame in pJK90 was replaced with the PAQR6 and mPRα open reading frames by gap repair. Primers for all cloning reactions are listed herein. Proteins expressed in pYES260 have an N-terminal 6×-histidine tag followed by a TEV protease cleavage site. Proteins expressed in pGREG536 have an N-terminal 7×-HA tag. Proteins expressed in the pRS316 vector are untagged. The pYES260, pRS316 and pGREG536 vectors allow for galactose-inducible expression via the GAL1 promoter. […] The FET3-lacZ plasmid was previously described (Kupchak et al., 2007). Plasmids derived from pADM4 carrying hyperactive alleles of Gpa1p (Gpa1p^Q323L) (Slessareva et al., 2006) and Gpa2p (Gpa2p^Q300L) (Harashima et al., 2002) driven by the ADH1 promoter were kindly provided by Dr. Henrik Dohlman (UNC Chapel Hill). A pRS316-based plasmid containing the STE2 gene under the control of the GAL1 promoter (Feng et al., 2000) was kindly provided by Dr. Nicholas G. Davis (Wayne State University).
as §1

PAQR6 = molecular target: T2, PAQR6 (Homo sapiens, UniProt Q6TCH4); test: FET3-lacZ reporter repression in yeast expressing PAQR6; format: cell-based; conditions: PAQR6, Table 3
T2 construct: expressed in transfected cells; host or cells: Saccharomyces cerevisiae BY4742, GAL1-driven pYES260 plasmid
T2 sequence (Q6TCH4 1-344): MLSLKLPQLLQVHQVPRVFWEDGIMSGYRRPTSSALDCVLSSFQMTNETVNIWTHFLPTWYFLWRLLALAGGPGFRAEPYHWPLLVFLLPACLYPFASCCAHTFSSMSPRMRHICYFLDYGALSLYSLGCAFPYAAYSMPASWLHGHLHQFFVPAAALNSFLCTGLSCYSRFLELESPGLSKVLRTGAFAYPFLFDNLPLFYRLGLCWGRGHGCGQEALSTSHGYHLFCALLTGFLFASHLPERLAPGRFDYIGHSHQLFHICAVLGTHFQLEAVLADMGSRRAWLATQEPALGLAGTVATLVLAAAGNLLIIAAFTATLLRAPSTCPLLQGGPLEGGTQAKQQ
Description: as §2, with “Plasmids derived from pADM4 carrying hyperactive alleles of Gpa1p (Gpa1p^Q323L) (Slessareva et al., 2006) and Gpa2p (Gpa2p^Q300L) (Harashima et al., 2002) driven by the ADH1 promoter were kindly provided by Dr. Henrik Dohlman (UNC Chapel Hill). A pRS316-based plasmid containing the STE2 gene under the control of the GAL1 promoter (Feng et al., 2000) was kindly provided by Dr. Nicholas G. Davis (Wayne State University).” left out
(§3) Assays and growth conditions. […] Cells were allowed to grow to mid-log phase at which time the activity of the FET3 gene was monitored using a FET3-lacZ promoter-reporter construct. lacZ activities are presented as a percentage of activity seen in untreated cells expressing the appropriate empty expression vector control. […]

Class II PAQRs = test: FET3-lacZ response of the human PAQR panel to 10 μM progesterone: Class II; format: cell-based
Description: as §2, with “Plasmids derived from pADM4 carrying hyperactive alleles of Gpa1p (Gpa1p^Q323L) (Slessareva et al., 2006) and Gpa2p (Gpa2p^Q300L) (Harashima et al., 2002) driven by the ADH1 promoter were kindly provided by Dr. Henrik Dohlman (UNC Chapel Hill). A pRS316-based plasmid containing the STE2 gene under the control of the GAL1 promoter (Feng et al., 2000) was kindly provided by Dr. Nicholas G. Davis (Wayne State University).” left out
as §3

CC(=O)[C@H]1CC[C@H]2[C@@H]3CCC4=CC(=O)CC[C@]4(C)[C@H]3CC[C@]12C [Progesterone, progesterone]
effect of ligand on FET3 in cells carrying empty expression plasmid (FET3): did not respond
EC50 (mPRγ; mPRγ column of Table 4, ligand alone): 1.1 nM
EC50 (mPRγ; mPRγ, Table 3, iron deficient LIM, 0.05% galactose): 1.3 nM and 1 to 3 nM
EC50 (mPRγ; mPRγ, progesterone in the presence of 100 nM RU-486): 15.5 nM
EC50 (mPRγ; mPRγ, progesterone in the presence of 10 μM testosterone): 10.7 nM
EC50 (PAQR6): 2.6 nM
agonist effect on all five Class II PAQRs (Class II PAQRs): effective agonist
